Tested on: ets-2 (WT/WT) and ets-2 (A72/A72) mice
Assay: Bronchoalveolar lavage (BAL) cell differentials after intra-peritoneal bleomycin
Format: in vivo, mouse
Conditions: mean ± S.E.M.
Description: Mice: Transgenic mice harboring a point mutation in Ets2 [Ets2tmA720sh, referred to as Ets2 (A72/A72)] resulting in a threonine to alanine conversion at position 72 were used. Wild type littermates (FVB/N background) were used as controls.
Bleomycin studies: Male mice, aged 6-12 weeks, underwent intra-peritoneal (IP) injection. Briefly, mice were injected with 0.035 U bleomycin/g or PBS (vehicle control) on days 1, 4, 8, 11, 15, 18, 22, and 25. One week following the last injection, mice were sacrificed. Prior to removal, lungs were lavaged with 1.0 ml of PBS. Lungs were subsequently removed and inflated at 20 cm pressure. The left lobe of the lung was placed in 10% Formalin and prepared for immunohistochemical processing (Histotechniques, Powell, Ohio), and the right lobes were snap frozen in liquid nitrogen for RNA, collagen, and protein analyses.
Bronchoalveolar lavage (BAL) analysis: Following the bleomycin regimen (33 days), two instillations of 0.5 ml of PBS were performed, and the BAL fluid (BALF) was collected. The total number of cells isolated via BAL was calculated. BAL fluid was then centrifuged to pellet the cells, and the supernatant (BALF) was collected and stored for ELISA analyses. Cells were resuspended in 100 μl of PBS, cytospun on slides, stained, and analyzed under a microscope for cell differentials.

[1] = ets-2 (A72/A72) mice, n = 7, 0.035 U bleomycin/g IP
[2] = ets-2 (WT/WT) mice, n = 5, 0.035 U bleomycin/g IP

Substance: bleomycin
- Alveolar Macrophages [1]: 6.8 ± 1.4 ×10^4
- Lymphocytes [1]: 0.7 ± 0.6 ×10^4
- Neutrophils [1]: 0.8 ± 0.6 ×10^4
- Total cells [1]: 8.3 ± 2.0 ×10^4
- Alveolar Macrophages [2]: 12.0 ± 2.3 $ ×10^4
- Lymphocytes [2]: 0 ×10^4
- Neutrophils [2]: 0 ×10^4
- Total cells [2]: 12.0 ± 2.3 # ×10^4
